US20240358693A1, “METHODS OF TREATING PAIN” (Aisa Pharma, Inc., priority 2023, published 2024)

System: participants with SSc-RP
Test: Scleroderma Health Assessment Questionnaire (SHAQ): disability indices and visual analog scales
Type: in vivo, human
Conditions: PP Population, Part A, SSc patients, sensitivity analysis
Excerpt: The standard, validated, patient reported outcome measures tool for SSc patients, the Scleroderma Health Assessment Questionnaire (SHAQ), will be used to assess the participant qualify of life. Details are attached in the Appendix. The participant quality of life will be scored, and a disability index calculated for each questionnaire completed by the patient at Screening and each in-clinic visit. The absolute change in participant quality of life from baseline to the end of each dosing period will be calculated similar to frequency data as before.
The SHAQ includes a Raynaud's VAS, which will be reported at screening and each in-clinic visit. The absolute change in Raynaud-VAS, assessed by the participants response to the SHAQ question ‘In the past 7 days, how much have your Raynaud's interfered with your daily activities?’ at baseline and the end of each dosing period will be calculated similar to frequency data as before.
The SHAQ is used to calculate a Disability Index to assess the participant qualify of life. The eight categories assessed by the Disability Index are 1) dressing and grooming, 2) arising, 3) eating, 4) walking, 5) hygiene, 6) reach, 7) grip, and 8) common daily activities. For each of these categories, patients report the amount of difficulty they have in performing two or three specific activities.
There are four possible responses for the Disability Index questions: • Without any difficulty=0 • With some difficulty=1 • With much difficulty=2 • Unable to do=3. • The highest score reported by the patient for any component question of the eight categories determines the score for that category. • If a component question is left blank or the response is too ambiguous to assign a score, then the score for that category is determined by the remaining completed question(s). • If all component questions are blank or if more than one answer is given, then follow up with the respondent is required. • If the respondent's mark is between the response columns, then move it to the closest one. If it's directly between the two, move it to the higher one.
Each of the disability items on the SHAQ has a companion aids/devices variable that is used to record what type(s) of assistance, if any, the participant uses for his/her usual activities. These variables (see below) are coded as follows: • 0=No assistance is needed. • 1=A special device is used by the patient in his/her usual activities. • 2=The patient usually needs help from another person. • 3=The patient usually needs BOTH a special device AND help from another person.
The scoring variables and scoring rules permit the computation of two disability indices, the Standard Disability Index and the Alternative Disability Index.
This question results in a new set of category scores that are computed by adjusting the score for each category, if necessary, based on the patient's use of an aid or device or assistance for that category. If either devices and/or help from another person are checked for a category, the score is set to “2”, unless the score is already “3” (i.e., scores of “0” or “1” are increased to “2”). For example, if the highest score for the dressing category is “1”, and the patient says they use a device for dressing, the computed category score would be “2”. The sum of the computed categories scores is then calculated and divided by the number of categories answered. This gives a score in the 0 to 3 range.
The aid and device variables are not used to calculate the alternative disability index; it is calculated by adding the scores for each of the categories and dividing by the number of categories answered. This gives a score in the 0 to 3 range.
The standard, validated, patient reported outcome measures tool for SSc patients, the SHAQ, was collected at the time points specified in the study schedules (FIG. 2 and FIGS. 4A and 4B) to assess the participant's quality of life. The SHAQ included a Raynaud's VAS that will also be reported separately.

[1] = Day 12 vs baseline, Subject 01-110 Day 12 score excluded
[2] = In-Clinic Visit (Day 12), Subject 01-110 Day 12 score excluded

COCCOC(=O)C1=C(C)NC(C)=C(C(=O)OC/C=C/c2ccccc2)C1c1cccc([N+](=O)[O-])c1 (stereo not drawn) [Any Cilnidipine]
SHAQ Visual Analogue Scale - Raynaud’s, Change from Baseline, Min (Day 12 vs baseline): −4.10
SHAQ Visual Analogue Scale - Raynaud’s, Change from Baseline, Q1 (Day 12 vs baseline): −1.000
SHAQ Visual Analogue Scale - Raynaud’s, Change from Baseline, Q3 (Day 12 vs baseline): 0.000
SHAQ Visual Analogue Scale - Raynaud’s, Percent Change from Baseline, Max (Day 12 vs baseline): 136.4%
SHAQ Visual Analogue Scale - Raynaud’s, Percent Change from Baseline, Mean (Day 12 vs baseline): −20.44%
SHAQ Visual Analogue Scale - Raynaud’s, Percent Change from Baseline, Median (Day 12 vs baseline): −33.33%
SHAQ Visual Analogue Scale - Raynaud’s, Percent Change from Baseline, Min (Day 12 vs baseline): −100.0%
SHAQ Visual Analogue Scale - Raynaud’s, Percent Change from Baseline, Q1 (Day 12 vs baseline): −50.62%
SHAQ Visual Analogue Scale - Raynaud’s, Percent Change from Baseline, Q3 (Day 12 vs baseline): 0.00%
SHAQ Visual Analogue Scale - Breathing Problems, Change from Baseline, Max [1]: 3.70
SHAQ Visual Analogue Scale - Breathing Problems, Change from Baseline, Mean [1]: 0.025
SHAQ Visual Analogue Scale - Breathing Problems, Change from Baseline, Median [1]: 0.000
SHAQ Visual Analogue Scale - Breathing Problems, Change from Baseline, Min [1]: −2.00
SHAQ Visual Analogue Scale - Breathing Problems, Change from Baseline, Q1 [1]: −0.700
SHAQ Visual Analogue Scale - Breathing Problems, Change from Baseline, Q3 [1]: 0.450
SHAQ Visual Analogue Scale - Breathing Problems, Percent Change from Baseline, Max [1]: 600.0%
SHAQ Visual Analogue Scale - Breathing Problems, Percent Change from Baseline, Mean [1]: 50.12%
SHAQ Visual Analogue Scale - Breathing Problems, Percent Change from Baseline, Median [1]: −16.00%
SHAQ Visual Analogue Scale - Breathing Problems, Percent Change from Baseline, Min [1]: −100.0%
SHAQ Visual Analogue Scale - Breathing Problems, Percent Change from Baseline, Q1 [1]: −75.00%
SHAQ Visual Analogue Scale - Breathing Problems, Percent Change from Baseline, Q3 [1]: 115.63%
SHAQ Alternative Disability Index, Max (In-Clinic Visit (Day 12)): 1.50
SHAQ Alternative Disability Index, Mean (In-Clinic Visit (Day 12)): 0.450
SHAQ Alternative Disability Index, Median (In-Clinic Visit (Day 12)): 0.250
SHAQ Alternative Disability Index, Min (In-Clinic Visit (Day 12)): 0.00
SHAQ Alternative Disability Index, Q1 (In-Clinic Visit (Day 12)): 0.000
SHAQ Alternative Disability Index, Q3 (In-Clinic Visit (Day 12)): 0.714
SHAQ Visual Analogue Scale - Finger Ulcers, Max (In-Clinic Visit (Day 12)): 5.60
SHAQ Visual Analogue Scale - Finger Ulcers, Mean (In-Clinic Visit (Day 12)): 0.731
SHAQ Visual Analogue Scale - Finger Ulcers, Median (In-Clinic Visit (Day 12)): 0.000
SHAQ Visual Analogue Scale - Finger Ulcers, Min (In-Clinic Visit (Day 12)): 0.00
SHAQ Visual Analogue Scale - Finger Ulcers, Q1 (In-Clinic Visit (Day 12)): 0.000
SHAQ Visual Analogue Scale - Finger Ulcers, Q3 (In-Clinic Visit (Day 12)): 0.900
SHAQ Visual Analogue Scale - Intestinal Problems, Max (In-Clinic Visit (Day 12)): 4.50
SHAQ Visual Analogue Scale - Intestinal Problems, Mean (In-Clinic Visit (Day 12)): 1.121
SHAQ Visual Analogue Scale - Intestinal Problems, Median (In-Clinic Visit (Day 12)): 0.600
SHAQ Visual Analogue Scale - Intestinal Problems, Min (In-Clinic Visit (Day 12)): 0.00
SHAQ Visual Analogue Scale - Intestinal Problems, Q1 (In-Clinic Visit (Day 12)): 0.000
SHAQ Visual Analogue Scale - Intestinal Problems, Q3 (In-Clinic Visit (Day 12)): 1.900
SHAQ Visual Analogue Scale - Overall Disease Severity, Max (In-Clinic Visit (Day 12)): 7.30
SHAQ Visual Analogue Scale - Overall Disease Severity, Mean (In-Clinic Visit (Day 12)): 2.203
SHAQ Visual Analogue Scale - Overall Disease Severity, Median (In-Clinic Visit (Day 12)): 1.400
SHAQ Visual Analogue Scale - Overall Disease Severity, Min (In-Clinic Visit (Day 12)): 0.00
SHAQ Visual Analogue Scale - Overall Disease Severity, Q1 (In-Clinic Visit (Day 12)): 0.800
SHAQ Visual Analogue Scale - Overall Disease Severity, Q3 (In-Clinic Visit (Day 12)): 3.050
SHAQ Visual Analogue Scale - Pain, Max (In-Clinic Visit (Day 12)): 5.50
SHAQ Visual Analogue Scale - Pain, Mean (In-Clinic Visit (Day 12)): 2.476
SHAQ Visual Analogue Scale - Pain, Median (In-Clinic Visit (Day 12)): 2.200
SHAQ Visual Analogue Scale - Pain, Min (In-Clinic Visit (Day 12)): 0.00
SHAQ Visual Analogue Scale - Pain, Q1 (In-Clinic Visit (Day 12)): 1.000
SHAQ Visual Analogue Scale - Pain, Q3 (In-Clinic Visit (Day 12)): 3.800
SHAQ Visual Analogue Scale - Raynaud’s, Max (In-Clinic Visit (Day 12)): 5.20
SHAQ Visual Analogue Scale - Raynaud’s, Mean (In-Clinic Visit (Day 12)): 2.022
SHAQ Visual Analogue Scale - Raynaud’s, Median (In-Clinic Visit (Day 12)): 1.400
SHAQ Visual Analogue Scale - Raynaud’s, Min (In-Clinic Visit (Day 12)): 0.00
SHAQ Visual Analogue Scale - Raynaud’s, Q1 (In-Clinic Visit (Day 12)): 0.500
SHAQ Visual Analogue Scale - Raynaud’s, Q3 (In-Clinic Visit (Day 12)): 4.000
SHAQ Visual Analogue Scale - Breathing Problems, Max [2]: 6.90
SHAQ Visual Analogue Scale - Breathing Problems, Mean [2]: 1.388
SHAQ Visual Analogue Scale - Breathing Problems, Median [2]: 0.300
SHAQ Visual Analogue Scale - Breathing Problems, Min [2]: 0.00
SHAQ Visual Analogue Scale - Breathing Problems, Q1 [2]: 0.000
SHAQ Visual Analogue Scale - Breathing Problems, Q3 [2]: 1.800
